Assay results reported in patent US20120308554A1, “VEGF-D/VEGFR2/3-MEDIATED REGULATION OF DENDRITES” (UNIVERSITAT HEIDELBERG, priority 2011, published 2012).

Columns and labels:
[1] = system: cultured hippocampal neurons; assay: Whole-cell patch clamp recordings of cultured hippocampal neurons; assay type: cell-based, mice
Description: Whole-cell patch clamp recordings were made at room temperature from cultured hippocampal neurons plated on coverslips secured with a platinum ring in a recording chamber (Open access chamber-1, Science Products GmbH, Hofheim, Germany) mounted on a fixed-stage upright microscope (BX51WI, Olympus, Hamburg, Germany). Differential interference contrast optics, infrared illumination and a CCD camera (PCO, Visitron Systems, Puchheim, Germany) connected to a contrast enhancement unit (Argus, Hamamatsu, Herrsching am Ammersee, Germany) were used to view neurons on a video monitor. Recordings were made with a Multiclamp 700A amplifier, digitized through a Digidata 1322A A/D converter and acquired using pClamp software (Molecular Devices, CA, USA). All membrane potentials have been corrected for the calculated junction potential of −11 mV (JPCalc program by Dr. Peter H. Barry). mEPSCs and whole-cell AMPA (10 μM, 6 ml/min, Biotrend) responses were recorded as known in the art except for the solutions and that a holding potential of −71 mV was used and both TTX (1 μM, Biotrend, Cologne, Germany) and gabazine (5 μM, Biotrend) were included in the ACSF. TTX was applied before gabazine to prevent the induction of action potential bursting. Access (range: 7-18 MU) and membrane resistance (see Table 1) were monitored before and after mEPSC recordings and data was rejected if changes greater than 20% occurred.
Patch electrodes (3-4 MU) were made from borosilicate glass (1.5 mm, WPI, Sarasota, Fla., USA) and filled with intracellular solution (containing in mM: KCH3SO4, 145; NaCl, 8; HEPES, 10; K2-phosphocreatine, 10; Mgt-ATP, 4; Na3-GTP, 0.3; pH 7.35 with KOH). The extracellular solution was an artificial cerebrospinal fluid (ACSF, in mM: NaCl, 125; KCl, 3.5; MgCl2, 1.3; NaH2PO4, 1.2; CaCl2, 2.4; glucose, 25; NaHCO3, 26; gassed with 95% O2 and 5% CO2).

VEGFC = assay: qRT-PCR analysis of VEGFC expression in hippocampal neurons; assay type: cell-based, mice; details: hippocampal neurons infected with rAAV
Protocol: Total RNA was isolated at DIV10 to DIV13 from hippocampal primary neuron cultures or isolated brain tissues with Rneasy Mini Kit (Qiagen, Hilden, Germany) including an optional Dnase I treatment at room temperature for 15 min according to manufacturer's instructions (Qiagen). 1.2 μg of extracted RNA was reverse transcribed into first strand cDNA using High Capacity cDNA Reverse Transcription kit (Applied Biosystems, Foster City, Calif.).
Quantitative reverse transcriptase PCR (qRT-PCR) was done on an ABI7300 thermal cycler using Universal qRT-PCR master mix with TaqMan Gene Expression Assays for the indicated genes (Applied Biosystems). The following TaqMan Gene Expression Assays were used in this study: Gusb (Mm00446953_m1), cFos (Mm00487425_m1), VEGFD (Mm00438965_m1), VEGFC (Mm01202432_m1), VEGF (Mm01281449_m1), VEGFR3 (Mm01292618_m1), beta-actin (Mm00607939_s1), beta-2 microglobulin (Mm00437762_m1), CBP (Mm01342435_m1), p38 MAPK alpha (Mm00442497_m1), p38 MAPK beta (Mm00440955_m1). Expression of target genes was normalized against the expression of Gusb as endogenous control gene. Data were derived from at least 5 independent experiments.

C57BL/6 mice = assay: Morris water maze; assay type: in vivo
Protocol: rAAVs were delivered by stereotaxic injection into the right dorsal hippocampus of 2 months old male C57BL/6 mice. For the Golgi staining-based morphometric analysis, viral particles were unilaterally injected over a period of 20 min at the following coordinates relative to Bregma: anteroposterior, −2.1 mm; mediolateral, −1.4 mm; dorsoventral, −1.4 to −1.8 mm from the skull surface. For behavior experiments mice were injected bilaterally.
The behavioral experiments started three weeks after stereotaxic delivery of rAAVs. Mice were habituated to the experimental room and handled once a day for three consecutive days before testing started. Two different sets of mice were used for Morris water maze and contextual fear conditioning experiments. At the end of the experiments, virus infection was assessed.
Mice were first tested in the hidden-platform version and next in the visible-platform version of the water maze. The water maze consisted of a circular pool (120 cm diameter) filled with opaque water (water was made opaque with non-toxic white paint). The platform (10 cm diameter) was submerged 1 cm below the water level. On the first day of the hidden-platform version, mice were habituated to the water and the platform for two 60 seconds trials. In each habituation trial, mice were allowed to swim for 30 seconds and then placed on the platform for another 30 seconds. During the acquisition phase, mice were placed four times a day into a pool with a submerged platform located in a fixed position (approximately 5 minutes inter-trial interval) for four days. […] On the fifth day, mice were given a 60 second probe trial, for which the platform was not in the pool. This was followed by four more days of training. A second probe trial was given on the tenth day. In the visible-platform version, mice were trained to find the platform using a proximal visible cue (red ball placed 10 cm above the platform). […] The path of the mouse was recorded using a video tracking system (ANY-Maze, Stoelting, Ireland).

shVEGFD: shRNA targeting mouse VEGFD mRNA (GGGCTTCAGGAGCGAACAT; SEQ ID NO: 1), expressed from rAAV vector or plasmid with U6 promoter
AMPA response amplitudes ([1]; bath applied AMPA 10 μM): smaller | AP induc thresh (current injection required to induce an action potential) ([1]; infected neurons): 162 ± 14 pA | AP thresh (membrane potential at which action potentials initiate) ([1]; infected neurons): −46.5 ± 1.1 mV | Cm (membrane capacitance) ([1]; infected neurons): 68.3 ± 3.3 pF | Rm (membrane resistance) ([1]; infected neurons): 316 ± 19 MΩ | Vrest (resting membrane potential) ([1]; infected neurons): −82.9 ± 1.9 mV | mEPSC τ decay ([1]; infected neurons): 4.14 ± 0.15 ms | mEPSC τ rise ([1]; infected neurons): 2.91 ± 0.10 ms | AP induc thresh (current injection required to induce an action potential) ([1]; transfected neurons): 149 ± 14 pA | AP thresh (membrane potential at which action potentials initiate) ([1]; transfected neurons): −45.6 ± 1.6 mV | Cm (membrane capacitance) ([1]; transfected neurons): 59.7 ± 3.8 pF | Rm (membrane resistance) ([1]; transfected neurons): 352 ± 29 MΩ | Vrest (resting membrane potential) ([1]; transfected neurons): −79.7 ± 2.0 mV | mEPSC τ decay ([1]; transfected neurons): 3.82 ± 0.26 ms | mEPSC τ rise ([1]; transfected neurons): 2.82 ± 0.23 ms | mEPSC inter-event intervals (IEIs, 1/frequency) ([1]; versus respective shSCR expressing controls): longer mEPSC inter-event intervals | Expression of VEGFC (VEGFC): not affected | Swimming speed (C57BL/6 mice; hidden-platform acquisition, versus rAAV-shSCR): not different between the two groups | time to find hidden platform (escape latency), effect of treatment (C57BL/6 mice; hidden-platform version, versus rAAV-shSCR): no effect of treatment was observed | time spent in quadrants during probe trial (C57BL/6 mice; probe trial, 60 sec): spent similar amounts of time in the different quadrants
